Test results published in patent US10166197B2, “Sugar ester nanoparticle stabilizers” (St. John's University, priority 2015, dated 2019).

Assay: Dispersion test, USP apparatus II (paddle method), 0.45 μm filtration and HPLC
Assay type: physicochemical
Settings: 0.45 μm pore size filter
Experimental: Dispersion tests were then run on each of the dosage forms using USP apparatus II (the paddle method). Dried samples corresponding to 20 mg of the lyophilized powder were weighed and mixed with 2% SLS and placed into 250 mL of dissolution media with a holding temperature at 37±0.5° C. The rotation speed of the paddle was set to 50 rpm. The dispersion test was performed in two steps: stimulated gastric fluid (pH 1.2) for up to 120 minutes, and changing the pH to pH 6.8 after that by adding 1N NaOH. This is to mimic the gastrointestinal pH conditions. Aliquots of the suspension were taken after 1, 3, 5, 10, 15, 30, 60, 120, 150, and 180 minutes. The aliquots were then filtered through a hydrophilic PTFE membrane filter with 0.45 μm pore size, diluted appropriately with an organic solvent to dissolve drug particles and analyzed for drug content by HPLC.
Dispersion tests were also performed on capsules and tablets of the lyophilized powder.

CC(C)(Sc1cc(C(C)(C)C)c(O)c(C(C)(C)C)c1)Sc1cc(C(C)(C)C)c(O)c(C(C)(C)C)c1 [neat probucol powder, probucol]
drug dispersion (result in words): did not demonstrate any drug dispersion
